Reference: patent US8865623B2, “Herbicidally active cyclic diones and derivatives thereof, processes for their preparation, compositions, and method of controlling weeds” (Syngenta Limited, priority 2009, dated 2014)

What was measured:
Assay type in all cases: in vivo
Lolium perenne (LOLPE) [1] = test: Pre-emergence herbicidal activity, glasshouse pot test; settings: Lolium perenne, 312 h, Rate 250 g/ha, evaluated after 13 days, read-out: Pre-emergence activity LOLPE (100=total damage to plant; 0=no damage to plant)
Method: (§1) Seeds of a variety of test species were sown in standard soil in pots. After cultivation for one day (pre-emergence) or after 8 days cultivation (post-emergence) under controlled conditions in a glasshouse (at 24/16° C., day/night; 14 hours light; 65% humidity), the plants were sprayed with an aqueous spray solution derived from the formulation of the technical active ingredient in acetone/water (50:50) solution containing 0.5% Tween 20 (polyoxyethelyene sorbitan monolaurate, CAS RN 9005-64-5). The test plants were then grown in a glasshouse under controlled conditions in a glasshouse (at 24/16° C., day/night; 14 hours light; 65% humidity) and watered twice daily. After 13 days for pre and post-emergence, the test was evaluated (100=total damage to plant; 0=no damage to plant).
(§2) Lolium perenne (LOLPE), Alopecurus myosuroides (ALOMY), Echinochloa crus-galli (ECHCG), and Avena fatua (AVEFA).

[2] = system: Echinochloa crus-galli (ECHCG); test: as above; settings: Echinochloa crus-galli, 312 h, Rate 250 g/ha, evaluated after 13 days, read-out: Pre-emergence activity ECHCG (100=total damage to plant; 0=no damage to plant)
Method: as §1, §2

[3] = system: Alopecurus myosuroides (ALOMY); test: as above; settings: Alopecurus myosuroides, 312 h, Rate 250 g/ha, evaluated after 13 days, read-out: Pre-emergence activity ALOMY (100=total damage to plant; 0=no damage to plant)
Method: as §1, §2

Avena fatua (AVEFA) [4] = test: as above; settings: Avena fatua, 312 h, Rate 250 g/ha, evaluated after 13 days, read-out: Pre-emergence activity AVEFA (100=total damage to plant; 0=no damage to plant)
Method: as §1, §2

Lolium perenne (LOLPE) [5] = test: Post-emergence herbicidal activity, glasshouse pot test; settings: Lolium perenne, 312 h, rate 250 g/ha, evaluated after 13 days, read-out: Post-emergence activity LOLPE (100=total damage to plant; 0=no damage to plant)
Method: as §1, §2

[6] = system: Echinochloa crus-galli (ECHCG); test: as above; settings: Echinochloa crus-galli, 312 h, rate 250 g/ha, evaluated after 13 days, read-out: Post-emergence activity ECHCG (100=total damage to plant; 0=no damage to plant)
Method: as §1, §2

[7] = system: Alopecurus myosuroides (ALOMY); test: as above; settings: Alopecurus myosuroides, 312 h, rate 250 g/ha, evaluated after 13 days, read-out: Post-emergence activity ALOMY (100=total damage to plant; 0=no damage to plant)
Method: as §1, §2

Avena fatua (AVEFA) [8] = test: as above; settings: Avena fatua, 312 h, rate 250 g/ha, evaluated after 13 days, read-out: Post-emergence activity AVEFA (100=total damage to plant; 0=no damage to plant)
Method: as §1, §2

SMILES	pest or weed control at 250 g/ha (Lolium perenne (LOLPE) [1]; pre-emergence spray)	pest or weed control at 250 g/ha ([2]; pre-emergence spray)	pest or weed control at 250 g/ha ([3]; pre-emergence spray)	pest or weed control at 250 g/ha (Avena fatua (AVEFA) [4]; pre-emergence spray)	pest or weed control at 250 g/ha (Lolium perenne (LOLPE) [5]; glasshouse)	pest or weed control at 250 g/ha ([6]; glasshouse)	pest or weed control at 250 g/ha ([7]; glasshouse)	pest or weed control at 250 g/ha (Avena fatua (AVEFA) [8]; glasshouse)	pest or weed control at 250 g/ha (Lolium perenne (LOLPE) [1]; pre-emergence)	pest or weed control at 250 g/ha ([2]; pre-emergence)	pest or weed control at 250 g/ha ([3]; pre-emergence)	pest or weed control at 250 g/ha (Avena fatua (AVEFA) [4]; pre-emergence)	pest or weed control at 250 g/ha (Lolium perenne (LOLPE) [5])	pest or weed control at 250 g/ha [6]	pest or weed control at 250 g/ha [7]	pest or weed control at 250 g/ha (Avena fatua (AVEFA) [8])
CCc1ccc(Oc2ccc(Br)cc2[N+](=O)[O-])cc1C1=C(O)C(C)(C)OC(C)(C)C1=O [Example A-227]	60%	80%	30%	20%	70%	90%	70%	60%								
CCc1ccc(Oc2ccc(F)cc2[N+](=O)[O-])cc1C1=C(O)C(C)(C)OC(C)(C)C1=O [Example A-230]	0%	20%	0%	0%	40%	80%	20%	60%								
CCc1ccc(Oc2cnc3cc(F)ccc3n2)cc1C1=C(O)CC(C)(C)CC1=O [Example A-298]	100%	100%	100%	100%	100%	100%	100%	100%								
CCc1ccc(Oc2ccc(C(F)(F)F)c(Cl)c2)cc1C1=C(O)CC(C)(C)CC1=O [Example A-283]	60%	90%	70%	10%	90%	90%	80%	90%								
CCc1ccc(Oc2ccc(C(F)(F)F)cc2Cl)cc1C1=C(O)CC2(CCOCC2)CC1=O [Example A-271]	90%	100%	90%	50%	70%	100%	90%	90%								
CC1(C)OC(C)(C)C(O)=C(c2cc(Oc3ncc(Cl)cc3Cl)ccc2C2CC2)C1=O [Example A-364]									90%	100%	70%	60%	90%	100%	100%	90%
CCc1ccc(Oc2nc3ccc(OC)cc3s2)cc1C1=C(O)CC(C)(C)CC1=O [Example A-300]	100%	100%	80%	0%	60%	100%	80%	70%								
CCc1ccc(Oc2ccc3ccccc3n2)cc1C1=C(O)CC(C)(C)CC1=O [Example A-292]	100%	100%	90%	50%	90%	100%	100%	90%								
CCc1ccc(Oc2ccc(Cl)cc2Cl)cc1C1=C(O)CCC(C)(C)C1=O [Example A-111]	40%	40%	10%	30%	50%	40%	10%	0%								
CCc1ccc(Oc2ccc(C(F)(F)F)cc2Cl)cc1C1=C(O)C(C)(C)OC(C)(C)C1=O [Example A-99]	100%	100%	60%	30%	80%	100%	80%	90%								
CCc1ccc(Oc2ccc([N+](=O)[O-])c(C)c2)cc1C1=C(O)C(C)(C)OC(C)(C)C1=O [Example A-200]	60%	50%	20%	0%	70%	90%	70%	10%								
CCc1ccc(Oc2ncc(C)nc2C)cc1C1=C(O)C(C)(C)OC(C)(C)C1=O [Example A-135]	10%	30%	10%	0%	30%	50%	30%	20%								
CCc1ccc(Oc2cccc(Br)c2)cc1C1=C(O)[C@H]2CC[C@H](C2)C1=O [Example A-245]	50%	80%	0%	0%	20%	80%	0%	10%								
CCc1ccc(Oc2nc3ccc(Cl)cc3s2)cc1C1=C(O)C(C)(C)OC(C)(C)C1=O [Example A-106]	100%	90%	60%	20%	80%	90%	90%	50%								
CCc1ccc(Oc2nc3c(Cl)cccc3s2)cc1C1=C(O)C(C)(C)OC(C)(C)C1=O [Example A-193]	70%	90%	30%	20%	100%	100%	80%	10%								
CC1(C)OC(C)(C)C(O)=C(c2cc(Oc3ccc(OC(F)(F)F)cc3)ccc2C2CC2)C1=O [Example A-356]									100%	100%	90%	70%	100%	100%	100%	100%
CCc1ccc(Oc2ccc(C#N)cn2)cc1C1=C(O)C(C)(C)OC(C)(C)C1=O [Example A-150]	70%	80%	10%	10%	40%	100%	60%	70%								
CCc1ccc(Oc2cc(OC)c(Cl)nn2)cc1C1=C(O)C(C)(C)OC(C)(C)C1=O [Example A-169]	10%	30%	20%	0%	20%	30%	20%	30%								
